Assay results from patent publication US20250129021A1, “SMALL MOLECULE PROTEIN SYNTHESIS MODULATORS” (Interdict Bio, Inc., priority 2023, published 2025).
Where two headings read alike, the source gives them in different places.

Tests used:
MYC = assay: In vitro transcription-translation (IVTT) assay, MYC reporter; assay type: biochemical; details: HeLa S3 lysate, 2 hrs at 30° C.
Summary of the method: (§1)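 Reporter: mCherry, P2A, then 3×FLAG-target peptide-sfGFP fusion, IRES-initiated; HeLa S3 lysate IVTT; cpd dilutions 30 μM−0.1 μM half-log in 100% DMSO (dilution-plate conc); DNA added last; 2 h, 30° C; PBS quench.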

MCL-1 = assay: In vitro transcription-translation (IVTT) assay, MCL-1 reporter; assay type: biochemical; details: HeLa S3 lysate, sfGFP/mCherry ratio
Summary of the method: as §1

ALK = assay: In vitro transcription-translation (IVTT) assay, ALK reporter; assay type: biochemical; details: HeLa S3 lysate, sfGFP/mCherry ratio, 2 hrs at 30° C.
Summary of the method: as §1

KRAS G12D = assay: In vitro transcription-translation (IVTT) assay, KRAS G12D reporter; assay type: biochemical; details: HeLa S3 lysate, sfGFP/mCherry ratio, 2 hrs at 30° C.
Summary of the method: as §1

HEK 293T = assay: Cell viability (CellTiter-Fluor), HEK 293T; assay type: cell-based; details: Homo sapiens, 24-72 hrs
Experimental: (§2) Count and dispense 2,000-10,000 cells per well (100 μL volume) in black 96-well tissue culture microplate and let cells adhere overnight. Add compound dissolved in 100% DMSO to each well as needed and incubate cells in standard culture conditions for 24-72 hrs. Final DMSO concentration in each well should be 0.1-0.5%. At the desired time point, gently aspirate compound containing media and replace with PBS to wash. Repeat wash step for 2 total washes. Remove PBS and add 100 μL CellTiter-Fluor reagent (Promega) reagent to each well. Seal plate and incubate 1 hr at room temperature with orbital shaking. Analyze fluorescence using plate reader to quantify viable cells compared with vehicle (DMSO) control.

HPAF-II = assay: Cell viability (CellTiter-Fluor), HPAF-II; assay type: cell-based; details: Homo sapiens, 24-72 hrs
Experimental: as §2

KLE = assay: Cell viability (CellTiter-Fluor), KLE; assay type: cell-based; details: Homo sapiens, 24-72 hrs
Experimental: as §2

LS411N = assay: Cell viability (CellTiter-Fluor), LS411N; assay type: cell-based; details: Homo sapiens, LS-411N, 24-72 hrs
Experimental: as §2

MCF7 = assay: Cell viability (CellTiter-Fluor), MCF7; assay type: cell-based; details: Homo sapiens, 24-72 hrs
Experimental: as §2

NCI-H1915 = assay: Cell viability (CellTiter-Fluor), NCI-H1915; assay type: cell-based; details: 24-72 hrs
Experimental: as §2

HCC38 = assay: Cell viability (CellTiter-Fluor), HCC38; assay type: cell-based; details: Homo sapiens, 24-72 hrs
Experimental: as §2

KATO-III = assay: Cell viability (CellTiter-Fluor), KATO-III; assay type: cell-based; details: Homo sapiens, 24-72 hrs
Experimental: as §2

MS751 = assay: Cell viability (CellTiter-Fluor), MS751; assay type: cell-based; details: 24-72 hrs
Experimental: as §2

T47D = assay: Cell viability (CellTiter-Fluor), T47D; assay type: cell-based; details: Homo sapiens, 24-72 hrs
Experimental: as §2

BCL-2 = assay: In vitro transcription-translation (IVTT) assay, BCL-2 reporter; assay type: biochemical; details: HeLa S3 lysate, sfGFP/mCherry ratio, 2 hrs at 30° C.
Summary of the method: as §1

CCND1 = assay: In vitro transcription-translation (IVTT) assay, CCND1 reporter; assay type: biochemical; details: HeLa S3 lysate, sfGFP/mCherry ratio
Summary of the method: as §1

HEPG2 = assay: Cell viability (CellTiter-Fluor), HEPG2; assay type: cell-based; details: Homo sapiens, 24-72 hrs
Experimental: as §2

CCNTB1 = assay: In vitro transcription-translation (IVTT) assay, CCNTB1 reporter; assay type: biochemical; details: HeLa S3 lysate, sfGFP/mCherry ratio
Summary of the method: (§3)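 Cell-free HeLa S3 lysate reactions expressing sfGFP/mCherry reporter constructs ran 2 h at 30 °C with compound from half-log DMSO series (30 μM–0.1 μM as prepared), then were quenched with PBS. No-DNA background was subtracted, and the sfGFP/mCherry ratio was normalized to the no-drug control and fit for IC50.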

cGAS = assay: In vitro transcription-translation (IVTT) assay, cGAS reporter; assay type: biochemical; details: HeLa S3 lysate, sfGFP/mCherry ratio
Experimental: (§4) In vitro transcription-translation assay setup: Each assay includes a master mix containing lysate and shared components, a 96-well plate containing compound titrations for testing, a 96-well DNA plate with reporter constructs to be tested, 96-well skirted PCR plates, and 96-well flat-bottom, black, fluorescent assay plates. Reaction materials setup: (A) Master mix—15 mL conical tube (3 mL of HeLa S3 Lysate described above; 0.6 mL of ThermoFisher Accessory Proteins (#88882); 1.2 ml of ThermoFisher Reaction Mix (#88882); 0.54 mL of nuclease-free Water); (B) 96-Well Master Mix+Compound Plate (Half-log dilutions (30 μM−0.1 μM) of 4 compounds of interest are prepared in 100% DMSO); 96-Well DNA Plate (Five DNA constructs are plated into single columns within the plate. Row 1 of the column contains nuclease free H2O, all other wells contain 110 ng/μL plasmid DNA). Reactions are started by mixing 155 μL of master mix and 3.5 μL of compound serial dilutions, then 9.1 μL of master mix+compound mixture is aliquoted across 5 96-well plates. Reactions begin with final addition of 2 μL of DNA for a 11.1 μL reaction volume in each well. The entire plate is sealed, and incubated for 2 hrs at 30° C. After 2 hrs, quench the assay using 45 μL of PBS, and transfer 50 μL to a flat-bottom black microplate Quantify the sfGFP and mCherry signals from each well on each plate, taking 3 reads of each plate, and perform data analysis below.
(§5) In vitro transcription-translation assay data analysis: Each plate is read three times in channels for both sfGFP and mCherry signals. The average signal across these 3 reads is then calculated for further analysis. Control wells containing no DNA reporter are subtracted from reporter wells in the same column to remove auto-fluorescence of the lysate. Then, the ratio of sfGFP/mCherry is calculated per well, and these ratios are averaged across the triplicate experiments on the same plate. Finally, the ratio of each titration concentration is normalized to the no drug control to create the normalized stalling metric. The error on this measurement is determined by propagating error through the averaging and normalization steps. Values are plotted and fit for IC50 determination for each test sequence and titration of compound.

STING = assay: In vitro transcription-translation (IVTT) assay, STING reporter; assay type: biochemical; details: HeLa S3 lysate, sfGFP/mCherry ratio
Experimental: as §4, §5

JAK1 = assay: In vitro transcription-translation (IVTT) assay, JAK1 reporter; assay type: biochemical; details: HeLa S3 lysate, sfGFP/mCherry ratio
Experimental: as §4, §5

NFKB1 = assay: In vitro transcription-translation (IVTT) assay, NFKB1 reporter; assay type: biochemical; details: HeLa S3 lysate, sfGFP/mCherry ratio
Summary of the method: as §3

For `COc1ccc(C[C@H]2NC[C@H](O)[C@H]2OC(=O)NCC2CC2)cc1` [V187189, (2R,3S,4S)-4-hydroxy-2-[(4-methoxyphenyl)methyl]pyrrolidin-3-yl N-(cyclopropylmethyl)carbamate; trifluoroacetic acid], which IC50 (MYC; sfGFP/mCherry ratio) is on record?
Its IC50 is < 10 µM.

What about the IC50 (MCL-1; 2 hrs at 30° C.) of the same compound?
The IC50 was < 10 µM.

What about the IC50 (ALK) of the same compound?
Its IC50 is < 10 µM.

And the IC50 (KRAS G12D)?
Its IC50 is < 10 µM.

What about the IC50 (HEK 293T) of the same compound?
The IC50 was < 250 nM.

What about the IC50 (HPAF-II) of the same compound?
The IC50 was 250 to 1000 nM.

And the IC50 (KLE)?
The IC50 was 250 to 1000 nM.

What about the IC50 (LS411N) of the same compound?
Its IC50 is < 250 nM.

And the IC50 (MCF7)?
Its IC50 is 250 to 1000 nM.

And the IC50 (NCI-H1915)?
Its IC50 is 250 to 1000 nM.

What about the IC50 (HCC38) of the same compound?
The IC50 was 250 to 1000 nM.

What about the IC50 (KATO-III) of the same compound?
Its IC50 is 250 to 1000 nM.

And the IC50 (MS751)?
The IC50 was 250 to 1000 nM.

What about the IC50 (T47D) of the same compound?
Its IC50 is 250 to 1000 nM.

Which IC50 (BCL-2) does the source give for `COc1ccc(C[C@H]2NC[C@H](O)[C@H]2OC(=O)NCc2ccncc2)cc1` [V187987, (2R,3S,4S)-4-hydroxy-2-[(4-methoxyphenyl)methyl]pyrrolidin-3-yl N-(pyridin-4-ylmethyl)carbamate] here?
The IC50 was < 10 µM.

What about the IC50 (MYC; sfGFP/mCherry ratio) of the same compound?
Its IC50 is < 10 µM.

What about the IC50 (CCND1; 2 hrs at 30° C.) of the same compound?
The IC50 was < 10 µM.

And the IC50 (MCL-1; 2 hrs at 30° C.)?
Its IC50 is < 10 µM.

What about the IC50 (HEK 293T) of the same compound?
Its IC50 is < 250 nM.

What about the IC50 (HPAF-II) of the same compound?
Its IC50 is 250 to 1000 nM.

And the IC50 (KLE)?
Its IC50 is 250 to 1000 nM.

And the IC50 (LS411N)?
The IC50 was < 250 nM.

And the IC50 (MCF7)?
The IC50 was < 250 nM.

What about the IC50 (NCI-H1915) of the same compound?
The IC50 was < 250 nM.

And the IC50 (HCC38)?
The IC50 was 250 to 1000 nM.

And the IC50 (HEPG2)?
The IC50 was 1000 to 4000 nM.

And the IC50 (KATO-III)?
The IC50 was 250 to 1000 nM.

And the IC50 (MS751)?
The IC50 was 250 to 1000 nM.

What about the IC50 (T47D) of the same compound?
Its IC50 is < 250 nM.

How did the IC50 (BCL-2) turn out when `COc1ccc(C[C@H]2NC[C@H](O)[C@H]2OC(=O)NCc2ccccc2)cc1` [V187190, (2R,3S,4S)-4-hydroxy-2-[(4-methoxyphenyl)methyl]pyrrolidin-3-yl N-benzylcarbamate; trifluoroacetic acid] was run?
Its IC50 is < 10 µM.

What about the IC50 (MYC; sfGFP/mCherry ratio) of the same compound?
Its IC50 is < 10 µM.

And the IC50 (CCND1; 2 hrs at 30° C.)?
The IC50 was < 10 µM.

And the IC50 (MCL-1; 2 hrs at 30° C.)?
Its IC50 is < 10 µM.

What about the IC50 (ALK) of the same compound?
Its IC50 is < 10 µM.

And the IC50 (KRAS G12D)?
The IC50 was < 10 µM.

And the IC50 (HEK 293T)?
Its IC50 is < 250 nM.

And the IC50 (HPAF-II)?
The IC50 was 250 to 1000 nM.

And the IC50 (KLE)?
Its IC50 is < 250 nM.

And the IC50 (LS411N)?
The IC50 was < 250 nM.

And the IC50 (MCF7)?
The IC50 was < 250 nM.

What about the IC50 (NCI-H1915) of the same compound?
Its IC50 is < 250 nM.

What about the IC50 (HCC38) of the same compound?
Its IC50 is 250 to 1000 nM.

What about the IC50 (HEPG2) of the same compound?
The IC50 was < 250 nM.

And the IC50 (KATO-III)?
Its IC50 is < 250 nM.

What about the IC50 (MS751) of the same compound?
The IC50 was < 250 nM.

And the IC50 (T47D)?
Its IC50 is < 250 nM.

What does the source list for `O=C(NCC[C@@H]1CCCN1)O[C@@H]1[C@@H](O)CN[C@@H]1Cc1ccc(-c2cnco2)cc1` [V192047, (2R,3S,4S)-4-hydroxy-2-{[4-(1,3-oxazol-5-yl)phenyl]methyl}pyrrolidin-3-yl N-{2-[(2S)-pyrrolidin-2-yl]ethyl}carbamate]?
IC50 (MYC; IVTT assay, MYC reporter, normalized sfGFP/mCherry ratio, half-log dilutions 30 μM-0.1 μM): < 10 µM; IC50 (CCND1; IVTT assay): < 10 µM; IC50 (MCL-1; IVTT assay, read-out: MCL1 IC50): < 10 µM; IC50 (CCNTB1): < 10 µM; IC50 (cGAS): < 10 µM; IC50 (STING): < 10 µM; IC50 (JAK1): < 10 µM; IC50 (NFKB1): < 10 µM
